Data on 13 compounds can be found in patent US9422293B2 (priority 2006, dated 2016).

Where a name gives a salt, the structure may show the parent alone. Read-outs that look alike come from different tables or passages of the source.

Test [1] has as its target T1, rat TRPV1 (Rattus norvegicus (Rat), UniProt O35433). Nature of the test: cell-based. The note with it: Rat IC50 (μM).
The target in test [2] is T1, rat TRPV1. To be noted: read-out: Rat IC50.

Turning to `CC1CCCCN1c1nc2c(c(Nc3ccc(C(F)(F)F)cc3)n1)CCN(c1ncccc1C(F)(F)F)CC2` (stereo not shown) [Example 246, 2-(2-Methylpiperidin-1-yl)-N-[4-(trifluoromethyl)phenyl]-7-[3-(trifluoromethyl)pyridin-2-yl]-6,7,8,9-tetrahydro-5H-pyrimido[4,5-d]azepin-4-amine hydrochloride salt], the concentration for half-maximal inhibition (IC50) at rat TRPV1 [1] was determined as […].

T1 sequence (O35433 whole entry): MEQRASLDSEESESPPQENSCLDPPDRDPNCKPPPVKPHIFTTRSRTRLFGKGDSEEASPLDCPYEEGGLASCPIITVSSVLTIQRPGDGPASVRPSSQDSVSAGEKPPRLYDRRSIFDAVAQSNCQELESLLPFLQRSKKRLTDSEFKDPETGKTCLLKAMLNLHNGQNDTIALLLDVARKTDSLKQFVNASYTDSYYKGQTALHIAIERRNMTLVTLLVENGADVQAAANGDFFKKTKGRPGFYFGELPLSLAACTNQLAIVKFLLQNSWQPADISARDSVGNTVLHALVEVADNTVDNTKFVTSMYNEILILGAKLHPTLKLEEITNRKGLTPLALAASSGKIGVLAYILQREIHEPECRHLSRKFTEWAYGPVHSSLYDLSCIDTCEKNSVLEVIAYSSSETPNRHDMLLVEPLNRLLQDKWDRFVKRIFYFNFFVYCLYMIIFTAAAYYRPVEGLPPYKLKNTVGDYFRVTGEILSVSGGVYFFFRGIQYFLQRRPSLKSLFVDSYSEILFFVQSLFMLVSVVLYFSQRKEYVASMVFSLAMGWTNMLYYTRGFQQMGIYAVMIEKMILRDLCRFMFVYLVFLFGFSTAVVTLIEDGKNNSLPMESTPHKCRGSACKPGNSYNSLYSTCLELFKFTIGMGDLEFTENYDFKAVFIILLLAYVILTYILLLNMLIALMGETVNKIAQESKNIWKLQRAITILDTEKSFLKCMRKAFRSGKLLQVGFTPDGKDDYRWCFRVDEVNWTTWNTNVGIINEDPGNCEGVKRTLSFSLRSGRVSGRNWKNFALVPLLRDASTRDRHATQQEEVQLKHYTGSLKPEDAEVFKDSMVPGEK

The compound `COC(=O)c1cnc(N2CCc3nc(S(C)(=O)=O)nc(Nc4ccc(C(F)(F)F)cc4)c3CC2)c(Cl)c1` [Example 211, Methyl 5-chloro-6-[2-(methylsulfonyl)-4-{[4-(trifluoromethyl)phenyl]amino}-5,6,8,9-tetrahydro-7H-pyrimido[4,5-d]azepin-7-yl]pyridine-3-carboxylate] returned a 50% inhibitory concentration (IC50) at rat TRPV1 [1] of 11.4 µM.

As to `Cc1nc(-c2nc3c(c(Nc4ccc(C(F)(F)F)cc4)n2)CCN(c2ncccc2C(F)(F)F)CC3)cs1` [Example 153, 2-(2-Methyl-1,3-thiazol-4-yl)-N-[4-(trifluoromethyl)phenyl]-7-[3-(trifluoromethyl)pyridin-2-yl]-6,7,8,9-tetrahydro-5H-pyrimido[4,5-d]azepin-4-amine trifluoroacetic acid salt], inhibition on rat TRPV1 [1] was half-maximal at 0.14 µM (IC50).

With `CC(C)c1nc2c(c(Nc3ccc(Br)cc3)n1)CCN(c1ncccc1C(F)(F)F)CC2` [Example 46, (4-Bromo-phenyl)-[2-isopropyl-7-(3-trifluoromethyl-pyridin-2-yl)-6,7,8,9-tetrahydro-5H-pyrimido[4,5-d]azepin-4-yl]-amine], at rat TRPV1 [1], the IC50 was 0.38 µM.

Take `CC1CCCCN1c1nc2c(c(Nc3ccc(C(F)(F)F)cc3)n1)CCN(c1ncccc1C(F)(F)F)CC2` (single isomer, unassigned) [Example 277, 2-[(2R or 2S)-2-Methylpiperidin-1-yl]-N-[4-(trifluoromethyl)phenyl]-7-[3-(trifluoromethyl)pyridin-2-yl]-6,7,8,9-tetrahydro-5H-pyrimido[4,5-d]azepin-4-amine]: on rat TRPV1 [1], the 50% inhibitory concentration (IC50) worked out at […].

Compound `FC(F)(F)c1ccc(Nc2nc(NC3CCOC3)nc3c2CCN(c2ncccc2C(F)(F)F)CC3)cc1` (stereo not shown) [Example 265, N^2-(Tetrahydro-furan-3-yl)-N^4-(4-trifluoromethyl-phenyl)-7-(3-trifluoromethyl-pyridin-2-yl)-6,7,8,9-tetrahydro-5H-pyrimido[4,5-d]azepine-2,4-diamine trifluoroacetic acid salt] gave a half-inhibitory concentration (IC50) against rat TRPV1 [1] of 0.39 µM.

At rat TRPV1 [1], `CC1CCCCN1c1nc2c(c(Nc3ccc(C(F)(F)F)cc3)n1)CCN(c1ncccc1C(F)(F)F)CC2` (single isomer, unassigned) [Example 276, 2-(2S or 2R)-2-Methylpiperidin-1-yl]-N-[4-(trifluoromethyl)phenyl]-7-[3-(trifluoromethyl)pyridin-2-yl]-6,7,8,9-tetrahydro-5H-pyrimido[4,5-d]azepin-4-amine] returned an IC50 of […].

The compound `CC(C)(C)c1ccc(Nc2nc(C(C)(C)C)nc3c2CCN(c2ncccc2C(F)(F)F)CC3)cc1` [Example 138, 2-(1,1-Dimethylethyl)-N-[4-(1,1-dimethylethyl)phenyl]-7-[3-(trifluoromethyl)pyridin-2-yl]-6,7,8,9-tetrahydro-5H-pyrimido[4,5-d]azepin-4-amine] registered an IC50 against rat TRPV1 [1] of 0.03 µM.

Consider `CC(C)(C)c1ccc(Nc2nc(CN3CCCCC3)nc3c2CCN(c2ncccc2C(F)(F)F)CC3)cc1` [Example 66B, (4-tert-Butyl-phenyl)-[2-piperidin-1-ylmethyl-7-(3-trifluoromethyl-pyridin-2-yl)-6,7,8,9-tetrahydro-5H-pyrimido[4,5-d]azepin-4-yl]-amine trifluoroacetic acid salt], for which the concentration for half-maximal inhibition (IC50) on rat TRPV1 [2] was determined as 930 nM.

Turning to `FC(F)(F)c1ccc(Nc2nc(NCC3CCCCC3)nc3c2CCN(c2ncccc2C(F)(F)F)CC3)cn1` [Example 270, N^2-(Cyclohexylmethyl)-7-[3-(trifluoromethyl)pyridin-2-yl]-N^4-[6-(trifluoromethyl)pyridin-3-yl]-6,7,8,9-tetrahydro-5H-pyrimido[4,5-d]azepine-2,4-diamine], the IC50 at rat TRPV1 [2] is 830 nM.

On to `COc1nc2c(c(Nc3ccc(C(F)(F)F)cc3)n1)CCN(c1ncccc1C(F)(F)F)CC2` [Example 62, [2-Methoxy-7-(3-trifluoromethyl-pyridin-2-yl)-6,7,8,9-tetrahydro-5H-pyrimido[4,5-d]azepin-4-yl]-(4-trifluoromethyl-phenyl)-amine], for which the 50% inhibitory concentration (IC50) at rat TRPV1 [2] was found to be 53 nM.

For the compound `CC(C)c1nc2c(c(Nc3ccc(C(F)(F)F)cc3)n1)CCN(c1ncc(C(=O)O)cc1Cl)CC2` [Example 288, 5-Chloro-6-[2-(1-methylethyl)-4-{[4-(trifluoromethyl)phenyl]amino}-5,6,8,9-tetrahydro-7H-pyrimido[4,5-d]azepin-7-yl]pyridine-3-carboxylic acid trifluoroacetic acid salt], the IC50 on rat TRPV1 [2] amounted to 2020 nM.

Turning to `FC(F)(F)c1ccc(Nc2nc(Sc3ccccc3)nc3c2CCN(c2ncccc2C(F)(F)F)CC3)cc1` [Example 349, 2-(Phenylsulfanyl)-N-[4-(trifluoromethyl)phenyl]-7-[3-(trifluoromethyl)pyridin-2-yl]-6,7,8,9-tetrahydro-5H-pyrimido[4,5-d]azepin-4-amine], at rat TRPV1 [2], the IC50 worked out at 2350 nM.

One may read the IC50 as the point on the concentration scale where inhibition reaches its midpoint.
